{"source": "patent US11369605B2", "about": "“Optically active azabicyclo ring derivative” (priority 2018, dated 2022)", "format_in_all_cases": "cell-based", "key": {"RS4; 11 cells": {"system": "RS4; 11 cells", "assay": "Test 2: inhibition of cell proliferation, RS4; 11", "details": "Homo sapiens; RS4; 11 cells, cultured 7 days, PrestoBlue", "method": "(§1) Test for Evaluating the Inhibition of Cell Proliferation RS4; 11 cells were obtained from American Type Culture Collection (ATCC). […] MOLM-13 cells were separately obtained from DSMZ (Deutsche Sammlung von Mikroorganismen und Zeilkulturen GmbH). […] The cells were plated to a 96-well plate in 2000 cells/well, each test compound was added thereto to adjust the final concentration of DMSO to 0.1% of DMSO, and the cells were cultured for 7 days. After the cultivation, the cell viability was calculated with PrestoBlue™ Cell Viability Reagent (Invitrogen, A13261)."}, "[1]": {"system": "HOXA9 mRNA in MV4; 11 cells", "assay": "Test 3: inhibition of mRNA transcription, HOXA9", "details": "20 to 24 hours, fitted with GAPDH", "method": "(§2) Test 3: Test for the Inhibition of mRNA Transcription with Test Compounds\n(§3) MV4; 11 cells were obtained from American Type Culture Collection (ATCC). […] After the incubation, the total RNA was extracted from the cells with RNeasy™ Mini Kit (QIAGEN, 74106), and cDNA was synthesized with Superscript™ VILO™ cDNA Synthesis Kit (Invitrogen, #11754250). By using TaqMan™ Gene Expression Master Mix (Applied Biosystems, 4369016) and TaqMan™ probe (Applied Biosystems), the expression level of mRNA was quantified from the obtained cDNA with 7900HT (Applied Biosystems). The expression level of each obtained gene (MEIS1 and HOXA9) was fitted with the expression level of mRNA of GAPDH."}, "MOLM-13 cells": {"system": "MOLM-13 cells", "assay": "Test 2: inhibition of cell proliferation, MOLM-13", "details": "Homo sapiens, cultured 7 days, PrestoBlue", "method": "as §1"}, "[2]": {"system": "MEIS1 mRNA in MV4; 11 cells", "assay": "Test 3: inhibition of mRNA transcription, MEIS1", "method": "as §2, §3"}}, "data": [{"smiles": "C=C1C[C@@H]2CC[C@H]1[C@@H](C(=O)N1CC3(C1)CN(c1ncncc1Oc1ccc(F)cc1C(=O)N(C(C)C)C(C)C)C3)N2", "note": "[Example 7, 5-fluoro-2-[(4-{6-[(1S,3S,4R)-5-methylidene-2-azabicyclo[2.2.2]octane-3-carbonyl]-2,6-diazaspiro[3.3]heptan-2-yl}pyrimidin-5-yl)oxy]-N,N-di(propan-2-yl)benzamide]", "values": [{"measurement": "IC50", "setting": "RS4; 11 cells", "value": 10, "unit": "nM"}, {"measurement": "mRNA at 1 μM (% control) HOXA9", "setting": "[1]", "value": 37.9, "unit": "% control"}, {"measurement": "IC50", "setting": "MOLM-13 cells", "value": 30, "unit": "nM"}, {"measurement": "mRNA transcription inhibition activity (in words)", "setting": "[2]; MEIS1 and HOXA9, MV4, summary of Test 3", "value": "showed the mRNA transcription inhibition activity"}, {"measurement": "mRNA at 1 μM (% control) MEIS1", "setting": "[2]; MV4, 1 μM, 20 to 24 hours, fitted with GAPDH", "value": 12.7, "unit": "% control"}]}]}
